Assay results from US20060025328A1, “Compositions suitable for controlled release of the hormone GnRH and its analogs” (priority 1997, published 2006).

System: LH
Test: LH concentrations in synchronized dairy heifers, Example 6
Type: in vivo
Settings: GnRH (100 μg) positive control
Method: Experimental formulations were prepared by weighing and mixing SAIB, solvent and deslorelin acetate (DA) to give a final concentration of 25 μg/ml. The SAIB: diluting solvent composition was:SAIB/propylene carbonate 70:30 w/w). Experimental DA Treatments were sterilized using gamma radiation. 30 healthy cyclic dairy heifers weighing about 750-800 lbs (340-364 kg) were used. This study was designed as a parallel group design. All heifers were synchronized using pretreatment with 100 μg GnRH (Cystorellin, Merial, Ltd., Islin, NJ) on day -7 followed by 25 mg PGF2α (Lutalyse Pharmacia-Upjohn Co. Kalamazoo, Mich.) treatment one week later. Forty eight hours after PGF2α treatment heifers received saline (negative controls), Cystorellin ([…]; positive controls) or Deslorelin-SABER (DA-slow delivery preparation; at 12.5, 25, 50 or 100 μg intra-muscular). Blood samples were collected by veni-puncture through shaved and aseptic-swabbed sites at -48, 0, 0.5, 1, 2, 4, 6, 12, 18, 24, 36, and 48 hours after treatment for LH analysis. […] were randomly assigned to one of 6 blinded treatment groups (n=5/group) to avoid interpretation bias.

**Q.** How did the “LH concentration at peak (average)” value turn out when “GnRH: GnRH (Cystorellin, Merial, Ltd.), positive control (QHWSYGLRPG; Gonadoliberin-1; UniProt P01148 24-33, looked up)” was run?
**A.** 22.3 ng/mL

**Q.** What about the “time of peak LH post-treatment” value of the same substance?
**A.** 1 h
